In patent US8367668B2, “Pyridazinone derivatives” (Merck Patent Gesellschaft mit Beschränkter Haftung, priority 2007, dated 2013):

molecular target: T1, Met kinase (Homo sapiens, UniProt P08581); assay: Met kinase inhibition (enzyme assay), flashplate method; format: biochemical
T1 construct: 6His (N); purchased Upstate 14-526; host or cells: Sf21 insect cells (S. frugiperda), baculovirus
Description: Measurement of Met Kinase Activity
According to the manufacturer's data (Met, active, upstate, catalogue No. 14-526), Met kinase is expressed for the purposes of protein production in insect cells (Sf21; S. frugiperda) and subsequent affinity-chromatographic purification as “N-terminal 6His-tagged” recombinant human protein in a baculovirus expression vector.
The kinase activity can be measured using various available measurement systems. In the scintillation proximity method (Sorg et al., J. of Biomolecular Screening, 2002, 7, 11-19), the flashplate method or the filter binding test, the radioactive phosphorylation of a protein or peptide as substrate is measured using radioactively labelled ATP (^32P-ATP, ^33P-ATP). In the case of the presence of an inhibitory compound, a reduced radioactive signal, or none at all, can be detected. Furthermore, homogeneous time-resolved fluorescence resonance energy transfer (HTR-FRET) and fluoroescence polarisation (FP) technologies can be used as assay methods (Sills et al., J. of Biomolecular Screening, 2002, 191-214).
Flashplate Method (Met Kinase)
The test plates used are 96-well Flashplate® microtitre plates from Perkin Elmer (Cat. No. SMP200). The components of the kinase reaction described below are pipetted into the assay plate. The Met kinase and the substrate poly Ala-Glu-Lys-Tyr, (pAGLT, 6:2:5:1), are incubated for 3 hrs at room temperature with radioactively labelled ^33P-ATP in the presence and absence of test substances in a total volume of 100 μl. The reaction is terminated using 150 μl of a 60 mM EDTA solution. After incubation for a further 30 min at room temperature, the supernatants are filtered off with suction, and the wells are washed three times with 200 μl of 0.9% NaCl solution each time. The measurement of the bound radioactivity is carried out by means of a scintillation measuring instrument (Topcount NXT, Perkin-Elmer).
The full value used is the inhibitor-free kinase reaction. This should be approximately in the range 6000-9000 cpm. The pharmacological zero value used is staurosporin in a final concentration of 0.1 mM. The inhibitory values (IC50) are determined using the RS1_MTS program.
Kinase reaction conditions per well: • 30 μl of assay buffer • 10 μl of substance to be tested in assay buffer with 10% of DMSO • 10 μl of ATP (final concentration 1 μM cold, 0.35 μCi of ^33P-ATP) • 50 μl of Met kinase/substrate mixture in assay buffer; • (10 ng of enzyme/well, 50 ng of pAGLT/well)
50 mM HEPES • 3 mM magnesium chloride • 3 μM sodium orthovanadate • 3 mM manganese(II) chloride • 1 mM dithiothreitol (DTT)
pH=7.5 (to be set using sodium hydroxide)
60 mM Titriplex III (EDTA)
Met kinase: Upstate, Cat. No. 14-526, Stock 1 μg/10 μl; spec. activity 954 U/mg;
Poly-Ala-Glu-Lys-Tyr, 6:2:5:1: Sigma Cat. No. P1152
Pharmacological Data Met Kinase Inhibitions (Enzyme Assay)

T1 sequence (P08581 974-1390 limits assumed): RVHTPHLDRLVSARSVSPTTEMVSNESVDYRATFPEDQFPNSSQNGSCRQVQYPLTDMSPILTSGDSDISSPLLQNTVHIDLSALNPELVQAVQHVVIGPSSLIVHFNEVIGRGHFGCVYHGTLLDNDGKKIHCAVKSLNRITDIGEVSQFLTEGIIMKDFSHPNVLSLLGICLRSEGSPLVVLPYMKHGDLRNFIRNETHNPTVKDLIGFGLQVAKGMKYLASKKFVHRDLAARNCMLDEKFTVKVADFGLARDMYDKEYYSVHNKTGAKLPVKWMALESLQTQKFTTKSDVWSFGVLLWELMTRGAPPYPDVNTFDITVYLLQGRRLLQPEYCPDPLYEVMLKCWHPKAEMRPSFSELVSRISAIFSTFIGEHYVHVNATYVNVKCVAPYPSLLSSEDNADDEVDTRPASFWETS

Row | IC50 [nM] | Structure (SMILES)
1 | 10 to 1000 | CCOC(=O)Nc1cccc(Cn2nc(-c3ccc(CC(=O)NCCN)cc3)ccc2=O)c1 [A147]
2 | 10 to 1000 | CCOC(=O)Nc1cccc(Cn2nc(-c3cccc(CNC(=O)CNC(=O)OC(C)(C)C)c3)ccc2=O)c1 [A97]
3 | 10 to 1000 | CCOC(=O)Nc1cccc(Cn2nc(-c3cccc(CC(=O)NCCN)c3)ccc2=O)c1 [A141]
4 | 10 to 1000 | CCOC(=O)Nc1cccc(Cn2nc(-c3cccc(CC(=O)NCCCO)c3)ccc2=O)c1 [A66]
5 | 10 to 1000 | CCOC(=O)Nc1cccc(Cn2nc(-c3ccc(C(=O)NCCCN4CCCC4=O)cc3)ccc2=O)c1 [A24]
6 | 10 to 1000 | CCOC(=O)Nc1cccc(Cn2nc(-c3ccc(C(=O)NCCN4CCCCC4)cc3)ccc2=O)c1 [A18]
7 | 10 to 1000 | CCOC(=O)Nc1cccc(Cn2nc(-c3ccc(CC(=O)NCCCCN(C)C)cc3)ccc2=O)c1 [A56]
8 | 10 to 1000 | CCOC(=O)Nc1cccc(Cn2nc(-c3ccc(CNC(=O)COC)cc3)ccc2=O)c1 [A81]
9 | 10 to 1000 | CCOC(=O)Nc1cccc(Cn2nc(-c3ccc(C(=O)NCCCN(C)C)cc3)ccc2=O)c1 [A14]
10 | 10 to 1000 | CCOC(=O)CN(C)C(=O)c1ccc(-c2ccc(=O)n(Cc3cccc(NC(=O)OCC)c3)n2)cc1 [A9]
11 | 10 to 1000 | CCOC(=O)Nc1cccc(Cn2nc(-c3ccc(C(=O)NCCCN4CCOCC4)cc3)ccc2=O)c1 [A27]
12 | 10 to 1000 | CCOC(=O)Nc1cccc(Cn2nc(-c3cccc(CC(=O)NCCCN(C)C)c3)ccc2=O)c1 [A64]
13 | 10 to 1000 | CCOC(=O)Nc1cccc(Cn2nc(-c3ccc(CNC(=O)CNC(C)=O)cc3)ccc2=O)c1 [A75, ethyl[3-(3-{4-[(2-acetylaminoacetylamino)methyl]phenyl}-6-oxo-6H-pyridazin-1-ylmethyl)phenyl]carbamate]
14 | 10 to 1000 | CCOC(=O)Nc1cccc(Cn2nc(-c3ccc(C(=O)NCCN)cc3)ccc2=O)c1 [A132]
15 | 10 to 1000 | CCOC(=O)Nc1cccc(Cn2nc(-c3ccc(C(=O)NCC(O)CO)cc3)ccc2=O)c1 (stereo not shown) [A6]
16 | 10 to 1000 | CCOC(=O)CNC(=O)c1ccc(-c2ccc(=O)n(Cc3cccc(NC(=O)OCC)c3)n2)cc1 [A8]
17 | 10 to 1000 | CCOC(=O)Nc1cccc(Cn2nc(-c3ccc(CNC(=O)CN4CCN(C(=O)OC(C)(C)C)CC4)cc3)ccc2=O)c1 [A86]
18 | 10 to 1000 | CCOC(=O)Nc1cccc(Cn2nc(-c3cccc(CC(=O)NCCOC)c3)ccc2=O)c1 [A68]
19 | 10 to 1000 | CCOC(=O)Nc1cccc(Cn2nc(-c3ccc(C(=O)NCCN4CCOCC4)cc3)ccc2=O)c1 [A17]
20 | 10 to 1000 | CCOC(=O)Nc1cccc(Cn2nc(-c3cccc(C(=O)NCCCOC)c3)ccc2=O)c1 [A51]
21 | 10 to 1000 | CCOC(=O)Nc1cccc(Cn2nc(-c3ccc(CNC(=O)CN(C)C)cc3)ccc2=O)c1 [A80]
22 | 10 to 1000 | CCOC(=O)Nc1cccc(Cn2nc(-c3ccc(C(=O)NCCO)cc3)ccc2=O)c1 [A2, ethyl(3-{3-[4-(2-hydroxyethylcarbamoyl)phenyl]-6-oxo-6H-pyridazin-1-ylmethyl}phenyl)carbamate]
23 | 10 to 1000 | CCOC(=O)Nc1cccc(Cn2nc(-c3ccc(CNC(=O)CCN(C)C)cc3)ccc2=O)c1 [A83]
24 | 10 to 1000 | CCOC(=O)Nc1cccc(Cn2nc(-c3ccc(-c4noc(C)n4)cc3)ccc2=O)c1 [A163, ethyl(3-{3-[4-(5-methyl-1,2,4-oxadiazol-3-yl)phenyl]-6-oxo-6H-pyridazin-1-ylmethyl}phenyl)carbamate]
25 | 10 to 1000 | CCOC(=O)Nc1cccc(Cn2nc(-c3ccc(CC(=O)NCCCN)cc3)ccc2=O)c1 [A148]
26 | 10 to 1000 | CCOC(=O)Nc1cccc(Cn2nc(-c3ccc(CC(=O)NCCNC(=O)OC(C)(C)C)cc3)ccc2=O)c1 [A55]
27 | 10 to 1000 | CCOC(=O)Nc1cccc(Cn2nc(-c3ccc(C(=O)NCCCn4ccnc4)cc3)ccc2=O)c1 [A10]

Row | IC50 [nM] | Structure (SMILES)
28 | 10 to 1000 | CCOC(=O)Nc1cccc(Cn2nc(-c3cccc(CNC(=O)CO)c3)ccc2=O)c1 [A101]
29 | 10 to 1000 | CCOC(=O)Nc1cccc(Cn2nc(-c3cccc(CC(=O)NCCCCO)c3)ccc2=O)c1 [A71]
30 | 10 to 1000 | CCOC(=O)Nc1cccc(Cn2nc(-c3ccc(C(=O)NCCCCN)cc3)ccc2=O)c1 [A129, ethyl(3-{3-[4-(4-aminobutylcarbamoyl)phenyl]-6-oxo-6H-pyridazin-1-ylmethyl}phenyl)carbamate]
31 | 10 to 1000 | CCOC(=O)Nc1cccc(Cn2nc(-c3ccc(CNC(=O)Cn4ccccc4=O)cc3)ccc2=O)c1 [A76]
32 | 10 to 1000 | CCOC(=O)Nc1cccc(Cn2nc(-c3ccc(CNC(=O)CN4CCOCC4)cc3)ccc2=O)c1 [A82]
33 | 10 to 1000 | CCOC(=O)Nc1cccc(Cn2nc(-c3cccc(C(=O)NCCN)c3)ccc2=O)c1 [A138]
34 | 10 to 1000 | CCOC(=O)Nc1cccc(Cn2nc(-c3ccc(CC(N)=O)cc3)ccc2=O)c1 [A57]
35 | 10 to 1000 | CCOC(=O)Nc1cccc(Cn2nc(-c3ccc(CNC(=O)CN4CCNCC4)cc3)ccc2=O)c1 [A143]
36 | 10 to 1000 | CCOC(=O)Nc1cccc(Cn2nc(-c3cccc(CC(=O)N(C)CCO)c3)ccc2=O)c1 [A67]
37 | 10 to 1000 | CCOC(=O)Nc1cccc(Cn2nc(-c3cccc(C(=O)NCCCO)c3)ccc2=O)c1 [A52]
38 | 10 to 1000 | CCOC(=O)Nc1cccc(Cn2nc(-c3ccc(CNC(=O)Cc4nnn[nH]4)cc3)ccc2=O)c1 [A77]
39 | 10 to 1000 | CCOC(=O)Nc1cccc(Cn2nc(-c3cccc(C(=O)NCCNC(=O)OC(C)(C)C)c3)ccc2=O)c1 [A45]
40 | 10 to 1000 | CCOC(=O)Nc1cccc(Cn2nc(-c3cccc(C(=O)NCCCNC(=O)OC(C)(C)C)c3)ccc2=O)c1 [A44]
41 | 10 to 1000 | CCOC(=O)Nc1cccc(Cn2nc(-c3cccc(C(=O)NCCCCN(C)C)c3)ccc2=O)c1 [A46]
42 | 10 to 1000 | CCOC(=O)Nc1cccc(Cn2nc(-c3cccc(CC(=O)NCCN(C)C)c3)ccc2=O)c1 [A65]
43 | 10 to 1000 | CCOC(=O)Nc1cccc(Cn2nc(-c3ccc(C(=O)NCCCN4CCCCC4)cc3)ccc2=O)c1 [A26]
44 | 10 to 1000 | CCOC(=O)Nc1cccc(Cn2nc(-c3cccc(CNC(=O)CN)c3)ccc2=O)c1 [A133]
45 | 10 to 1000 | CCOC(=O)Nc1cccc(Cn2nc(-c3cccc(CNC(=O)CNC(C)=O)c3)ccc2=O)c1 [A93]
46 | 10 to 1000 | CCOC(=O)Nc1cccc(Cn2nc(-c3cccc(CNC(=O)CCN(C)C)c3)ccc2=O)c1 [A103]
47 | 10 to 1000 | CCOC(=O)Nc1cccc(Cn2nc(-c3ccc(CNC(=O)CN)cc3)ccc2=O)c1 [A134]
48 | 10 to 1000 | CCOC(=O)Nc1cccc(Cn2nc(-c3cccc(C(=O)NCCOC)c3)ccc2=O)c1 [A50]
49 | 10 to 1000 | CCOC(=O)Nc1cccc(Cn2nc(-c3cccc(C(=O)NCCCN)c3)ccc2=O)c1 [A137]
50 | 10 to 1000 | CCOC(=O)Nc1cccc(Cn2nc(-c3cccc(C(=O)NCCCCO)c3)ccc2=O)c1 [A53]
51 | 10 to 1000 | CCOC(=O)Nc1cccc(Cn2nc(-c3ccc(C(=O)N(C)CCN(CC)CC)cc3)ccc2=O)c1 [A19]
52 | 10 to 1000 | CCOC(=O)Nc1cccc(Cn2nc(-c3cccc(CNC(=O)CCN)c3)ccc2=O)c1 [A135]
53 | 10 to 1000 | CCOC(=O)Nc1cccc(Cn2nc(-c3ccc(C(=O)NCCCCN(C)C)cc3)ccc2=O)c1 [A11]
54 | 10 to 1000 | CCOC(=O)Nc1cccc(Cn2nc(-c3ccc(C(=O)NCCCN4CCN(C)CC4)cc3)ccc2=O)c1 [A22]

Row | Structure (SMILES) | IC50 [nM]
55 | CCOC(=O)Nc1cccc(Cn2nc(-c3ccc(CC(=O)NCCCCNC(=O)OC(C)(C)C)cc3)ccc2=O)c1 [A54, ethyl[3-(3-{4-[(4-tert-butoxycarbonylaminobutyl-carbamoyl)methyl]phenyl}-6-oxo-6H-pyridazin-1-ylmethyl)phenyl]-carbamate] | 10 to 1000
